Assay results reported in patent US9113629B2, “4-amino-6-(4-substituted-phenyl)-picolinates and 6-amino-2-(4-substituted-phenyl)-pyrimidine-4-carboxylates and their use as herbicides” (DOW AGROSCIENCES LLC, priority 2013, dated 2015).

system: test plant species in Direct Seeded Rice; test: Postemergence herbicidal activity in direct seeded rice (Table 13); assay type: in vivo; conditions: BRAPP: broadleaf signalgrass, Brachiaria platyphylla; probit analysis
Excerpt: Seeds or nutlets of the desired test plant species were planted in a soil matrix prepared by mixing a loam soil (43 percent silt, 19 percent clay, and 38 percent sand, with a pH of about 8.1 and an organic matter content of about 1.5 percent) and river sand in an 80 to 20 ratio. The soil matrix was contained in plastic pots with a surface area of 139.7 cm^2. When required to ensure good germination and healthy plants, a fungicide treatment and/or other chemical or physical treatment was applied. The plants were grown for 10-17 d in a greenhouse with an approximate 14-h photoperiod which was maintained at about 29° C. during the day and 26° C. during the night. Nutrients and water were added on a regular basis and supplemental lighting was provided with overhead metal halide 1000-Watt lamps as necessary. The plants were employed for testing when they reached the second or third true leaf stage. A weighed amount, determined by the highest rate to be tested, of each test compound was placed in 25 mL glass vials and dissolved in a volume of 97:3 v/v acetone-DMSO to obtain 12× stock solutions. […] The concentrated stock solutions were added to the spray solutions so that the final acetone and DMSO concentrations were 16.2% and 0.5%, respectively. Spray solutions were diluted to the appropriate final concentrations with the addition of 10 mL of an aqueous mixture of 1.5% (v/v) Agri-dex crop oil concentrate. […] Compound requirements are based upon a 12 mL application volume at a rate of 187 L/ha. Formulated compounds were applied to the plant material with an overhead Mandel track sprayer equipped with […] nozzles calibrated to deliver 187 L/ha over an application area of 0.503 square meters (m^2) at a spray height of 18 inches (43 cm) above average plant canopy height. Control plants were sprayed in the same manner with the solvent blank. The treated plants and control plants were placed in a greenhouse as described above and watered by sub-irrigation to prevent wash-off of the test compounds. After 20-22 days, the condition of the test plants, compared with that of the untreated plants, was determined visually and scored on a scale of 0 to 100 percent where 0 corresponds to no injury and 100 corresponds to complete kill. By applying the well-accepted probit analysis as described by J. Berkson in Journal of the American Statistical Society, 48, 565 (1953) and by D. Finney in “Probit Analysis” Cambridge University Press (1952), the above data can be used to calculate GR20, GR50, GR80 and GR90 values, which are defined as growth reduction factors that correspond to the effective dose of herbicide required to kill or control 20 percent, 50 percent, 80 percent or 90 percent, respectively, of a target plant.

Row | SMILES | GR50 BRAPP | GR80 BRAPP
1 | Nc1c(Cl)c(C(=O)O)nc(-c2ccc(C(F)(F)F)c(F)c2)c1Cl [Compound 146] | 8 g ai/ha | 29 g ai/ha

same assay, conditions: CYPSS: sedge (Cyperus difformis, esculentus, iria); probit analysis

Row | SMILES | GR50 CYPSS | GR80 CYPSS
2 | Nc1c(Cl)c(C(=O)O)nc(-c2ccc(C(F)(F)F)c(F)c2)c1Cl [Compound 146] | 1 g ai/ha | 1 g ai/ha

same assay, conditions: ECHSS: barnyardgrass (Echinochloa crus-galli), junglerice (Echinochloa colonum); probit analysis

Row | SMILES | GR50 ECHSS | GR80 ECHSS
3 | Nc1c(Cl)c(C(=O)O)nc(-c2ccc(C(F)(F)F)c(F)c2)c1Cl [Compound 146] | 17 g ai/ha | 32 g ai/ha

same assay, conditions: LEFSS: sprangletop (Leptochloa chinensis, Leptochloa dubia); probit analysis

Row | SMILES | GR50 LEFSS | GR80 LEFSS
4 | Nc1c(Cl)c(C(=O)O)nc(-c2ccc(C(F)(F)F)c(F)c2)c1Cl [Compound 146] | 44 g ai/ha | 87 g ai/ha

same assay, conditions: ORYSS: Oryza sativa (crop); probit analysis

Row | SMILES | GR20 ORYSS
5 | Nc1c(Cl)c(C(=O)O)nc(-c2ccc(C(F)(F)F)c(F)c2)c1Cl [Compound 146] | 18 g ai/ha

same assay, conditions: SCPJU: Japanese bulrush, Scirpus juncoides; probit analysis

Row | SMILES | GR50 SCPJU | GR80 SCPJU
6 | Nc1c(Cl)c(C(=O)O)nc(-c2ccc(C(F)(F)F)c(F)c2)c1Cl [Compound 146] | 1 g ai/ha | 1 g ai/ha

same assay, conditions: SEBEX: hemp sesbania, Sesbania exaltata; probit analysis

Row | SMILES | GR50 SEBEX | GR80 SEBEX
7 | Nc1c(Cl)c(C(=O)O)nc(-c2ccc(C(F)(F)F)c(F)c2)c1Cl [Compound 146] | 3 g ai/ha | 4 g ai/ha

same assay, conditions: post-emergence, 504 h; BRAPP: broadleaf signalgrass, Brachiaria platyphylla; 35 g ai/ha; read-out: Visual Growth Reduction (%) 21 Days After Application BRAPP

Row | SMILES | pest or weed control at 35 g/ha
8 | Nc1c(Cl)c(C(=O)O)nc(-c2ccc(C(F)(F)F)c(F)c2)c1Cl [Compound 146] | 60 to 74%

same assay, conditions: post-emergence, 504 h; BRAPP: broadleaf signalgrass, Brachiaria platyphylla; 70 g ai/ha; read-out: Visual Growth Reduction (%) 21 Days After Application BRAPP

Row | SMILES | pest or weed control at 70 g/ha
9 | Nc1c(Cl)c(C(=O)O)nc(-c2ccc(C(F)(F)F)c(F)c2)c1Cl [Compound 146] | 95 to 100%

same assay, conditions: post-emergence, 504 h; CYPSS: sedge (Cyperus difformis, esculentus, iria); 35 g ai/ha; read-out: Visual Growth Reduction (%) 21 Days After Application CYPSS

Row | SMILES | pest or weed control at 35 g/ha
10 | Nc1c(Cl)c(C(=O)O)nc(-c2ccc(C(F)(F)F)c(F)c2)c1Cl [Compound 146] | 95 to 100%

same assay, conditions: post-emergence, 504 h; CYPSS: sedge (Cyperus difformis, esculentus, iria); 70 g ai/ha; read-out: Visual Growth Reduction (%) 21 Days After Application CYPSS

Row | SMILES | pest or weed control at 70 g/ha
11 | Nc1c(Cl)c(C(=O)O)nc(-c2ccc(C(F)(F)F)c(F)c2)c1Cl [Compound 146] | 95 to 100%

same assay, conditions: post-emergence, 504 h; ECHSS: barnyardgrass (Echinochloa crus-galli), junglerice (Echinochloa colonum); 35 g ai/ha; read-out: Visual Growth Reduction (%) 21 Days After Application ECHSS

Row | SMILES | pest or weed control at 35 g/ha
12 | Nc1c(Cl)c(C(=O)O)nc(-c2ccc(C(F)(F)F)c(F)c2)c1Cl [Compound 146] | 85 to 94%

same assay, conditions: post-emergence, 504 h; ECHSS: barnyardgrass (Echinochloa crus-galli), junglerice (Echinochloa colonum); 70 g ai/ha; read-out: Visual Growth Reduction (%) 21 Days After Application ECHSS

Row | SMILES | pest or weed control at 70 g/ha
13 | Nc1c(Cl)c(C(=O)O)nc(-c2ccc(C(F)(F)F)c(F)c2)c1Cl [Compound 146] | 85 to 94%

same assay, conditions: post-emergence, 504 h; LEFSS: sprangletop (Leptochloa chinensis, Leptochloa dubia); 35 g ai/ha; read-out: Visual Growth Reduction (%) 21 Days After Application LEFSS

Row | SMILES | pest or weed control at 35 g/ha
14 | Nc1c(Cl)c(C(=O)O)nc(-c2ccc(C(F)(F)F)c(F)c2)c1Cl [Compound 146] | 0 to 29%

same assay, conditions: post-emergence, 504 h; LEFSS: sprangletop (Leptochloa chinensis, Leptochloa dubia); 70 g ai/ha; read-out: Visual Growth Reduction (%) 21 Days After Application LEFSS

Row | SMILES | pest or weed control at 70 g/ha
15 | Nc1c(Cl)c(C(=O)O)nc(-c2ccc(C(F)(F)F)c(F)c2)c1Cl [Compound 146] | 75 to 84%

same assay, conditions: post-emergence, 504 h; ORYSS: Oryza sativa; 35 g ai/ha; read-out: Visual Growth Reduction (%) 21 Days After Application ORYSS

Row | SMILES | pest or weed control at 35 g/ha
16 | Nc1c(Cl)c(C(=O)O)nc(-c2ccc(C(F)(F)F)c(F)c2)c1Cl [Compound 146] | 30 to 44%

same assay, conditions: post-emergence, 504 h; ORYSS: Oryza sativa; 70 g ai/ha; read-out: Visual Growth Reduction (%) 21 Days After Application ORYSS

Row | SMILES | pest or weed control at 70 g/ha
17 | Nc1c(Cl)c(C(=O)O)nc(-c2ccc(C(F)(F)F)c(F)c2)c1Cl [Compound 146] | 60 to 74%

same assay, conditions: post-emergence, 504 h; SCPJU: Japanese bulrush, Scirpus juncoides; 35 g ai/ha; read-out: Visual Growth Reduction (%) 21 Days After Application SCPJU

Row | SMILES | pest or weed control at 35 g/ha
18 | Nc1c(Cl)c(C(=O)O)nc(-c2ccc(C(F)(F)F)c(F)c2)c1Cl [Compound 146] | 95 to 100%

same assay, conditions: post-emergence, 504 h; SCPJU: Japanese bulrush, Scirpus juncoides; 70 g ai/ha; read-out: Visual Growth Reduction (%) 21 Days After Application SCPJU

Row | SMILES | pest or weed control at 70 g/ha
19 | Nc1c(Cl)c(C(=O)O)nc(-c2ccc(C(F)(F)F)c(F)c2)c1Cl [Compound 146] | 95 to 100%

same assay, conditions: post-emergence, 504 h; SEBEX: hemp sesbania, Sesbania exaltata; 35 g ai/ha; read-out: Visual Growth Reduction (%) 21 Days After Application SEBEX

Row | SMILES | pest or weed control at 35 g/ha
20 | Nc1c(Cl)c(C(=O)O)nc(-c2ccc(C(F)(F)F)c(F)c2)c1Cl [Compound 146] | 95 to 100%

same assay, conditions: post-emergence, 504 h; SEBEX: hemp sesbania, Sesbania exaltata; 70 g ai/ha; read-out: Visual Growth Reduction (%) 21 Days After Application SEBEX

Row | SMILES | pest or weed control at 70 g/ha
21 | Nc1c(Cl)c(C(=O)O)nc(-c2ccc(C(F)(F)F)c(F)c2)c1Cl [Compound 146] | 95 to 100%
